In PubChem BioAssay (NCI):
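Cultured in 96-well plates, cells were exposed to test compound for 48 hours across five concentrations. The concentration for full growth arrest is given as TGI.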

Tests used:
Experiment in all cases: NCI tumour cell line growth inhibition, 48 h
HL-60(TB) leukemia = system: HL-60(TB) leukemia
A549 NSCLC = system: A549 NSCLC
HOP-18 NSCLC = system: HOP-18 NSCLC
NCI-H460 lung = system: NCI-H460 lung
HCT-116 colon = system: HCT-116 colon
SK-MEL-2 melanoma = system: SK-MEL-2 melanoma
UACC-257 melanoma = system: UACC-257 melanoma
UACC-62 melanoma = system: UACC-62 melanoma
DLD-1 colon = system: DLD-1 colon
HOP-62 NSCLC = system: HOP-62 NSCLC
SF-539 CNS = system: SF-539 CNS
SNB-75 CNS = system: SNB-75 CNS
MCF7 breast = system: MCF7 breast
OVCAR-4 ovarian = system: OVCAR-4 ovarian
KM12 colon = system: KM12 colon
KM20L2 colon = system: KM20L2 colon
SK-MEL-5 melanoma = system: SK-MEL-5 melanoma
NCI-H226 lung = system: NCI-H226 lung
HT29 colon = system: HT29 colon
P388/ADR leukemia = system: P388/ADR leukemia
LOX IMVI melanoma = system: LOX IMVI melanoma
SF-268 CNS = system: SF-268 CNS
NCI-H522 lung = system: NCI-H522 lung
RXF 393 renal = system: RXF 393 renal
SN12C renal = system: SN12C renal
U251 CNS = system: U251 CNS
MALME-3M melanoma = system: MALME-3M melanoma
SK-MEL-28 melanoma = system: SK-MEL-28 melanoma
OVCAR-3 ovarian = system: OVCAR-3 ovarian
SW-620 colon = system: SW-620 colon
UO-31 renal = system: UO-31 renal
SK-OV-3 ovarian = system: SK-OV-3 ovarian
A498 renal = system: A498 renal
SNB-78 CNS = system: SNB-78 CNS
XF 498 CNS = system: XF 498 CNS
SN12K1 renal = system: SN12K1 renal
HCT-15 colon = system: HCT-15 colon
SNB-19 CNS = system: SNB-19 CNS
RPMI-8226 leukemia = system: RPMI-8226 leukemia
NCI/ADR-RES ovarian = system: NCI/ADR-RES ovarian
NCI-H23 lung = system: NCI-H23 lung
EKVX NSCLC = system: EKVX NSCLC
HOP-92 NSCLC = system: HOP-92 NSCLC
MOLT-4 leukemia = system: MOLT-4 leukemia
SF-295 CNS = system: SF-295 CNS
HCC-2998 colon = system: HCC-2998 colon
COLO 205 colon = system: COLO 205 colon
P388 leukemia = system: P388 leukemia
OVCAR-8 ovarian = system: OVCAR-8 ovarian
CAKI-1 renal = system: CAKI-1 renal
DMS 273 small cell lung = system: DMS 273 small cell lung
M19-MEL melanoma = system: M19-MEL melanoma
OVCAR-5 ovarian = system: OVCAR-5 ovarian
CCRF-CEM leukemia = system: CCRF-CEM leukemia
IGROV1 ovarian = system: IGROV1 ovarian
K-562 leukemia = system: K-562 leukemia
LXFL 529 NSCLC = system: LXFL 529 NSCLC
M14 melanoma = system: M14 melanoma
SR leukemia = system: SR leukemia
786-0 renal = system: 786-0 renal
ACHN renal = system: ACHN renal
RXF-631 renal = system: RXF-631 renal
DMS 114 small cell lung = system: DMS 114 small cell lung
TK-10 renal = system: TK-10 renal

Measured: TGI

Cc1cc(C)c(C2=NO[C@@H]3[C@H]2C(=O)C=C2N(Cc4ccccc4)CCO[C@@]23O)c(C)c1
not listed: LXFL 529 NSCLC | M14 melanoma | SR leukemia | 786-0 renal | ACHN renal | RXF-631 renal | DMS 114 small cell lung | TK-10 renal
> 100 µM: all other assays above

O=C(O)c1cc2ccc(Cl)cc2c(O)c1C1=CCCCC1
68.8 µM: DMS 273 small cell lung
57.2 µM: OVCAR-4 ovarian
34.7 µM: SNB-75 CNS
51 µM: XF 498 CNS
95.9 µM: NCI-H23 lung
85.9 µM: HOP-92 NSCLC
88.5 µM: UACC-257 melanoma
81.9 µM: SK-MEL-5 melanoma
63.8 µM: SK-MEL-2 melanoma
63.6 µM: DMS 114 small cell lung
77.5 µM: UACC-62 melanoma
68.3 µM: NCI-H226 lung
96.4 µM: CAKI-1 renal
92.9 µM: NCI-H522 lung
79.1 µM: A498 renal
not listed: MCF7 breast | P388/ADR leukemia | SN12K1 renal | NCI/ADR-RES ovarian | P388 leukemia
> 100 µM: all other assays above

COc1ccc(C2C(C(=O)O)=C(COC(C)=O)Oc3cc4c(cc32)OCO4)c(OC)c1 (stereo not given)
not listed: MCF7 breast | KM12 colon | NCI-H226 lung | P388/ADR leukemia | SF-268 CNS | NCI-H522 lung | A498 renal | SN12K1 renal | NCI/ADR-RES ovarian | HCC-2998 colon | P388 leukemia | OVCAR-5 ovarian | LXFL 529 NSCLC | SR leukemia
> 100 µM: all other assays above
